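Dose response: 5 concentrations. Exposure: 48 h. Format: 96-well plates. Endpoint: linear interpolation; highest concentration if not reached. TGI: concentration producing complete growth inhibition.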

Test systems include A498 renal; COLO 205 colon; HCC-2998 colon; HCT-116 colon; K-562 leukemia; OVCAR-8 ovarian; TK-10 renal; UACC-257 melanoma.
Holding throughout (assay): DTP human tumour cell line panel, 48 h

As for `C/C(=N\NC(N)=S)C(CN(CC(C)C)CC(C)C)C(=O)Nc1ccc(C)cc1C` (stereo not drawn), the TGI in the test on A498 renal, in the test with COLO 205 colon, with HCC-2998 colon, with HCT-116 colon, in the test with K-562 leukemia and in the test with OVCAR-8 ovarian was more than 100 µM in each case. Further, the TGI in the test on TK-10 renal and in the test on UACC-257 melanoma was more than 100 µM each time.

For the compound `Nc1c(C(=O)Nc2ccccc2)[n+]([O-])c2ccccc2[n+]1[O-]`, the TGI was 31 µM in the test on A498 renal; 29.3 µM with COLO 205 colon; 32.2 µM with HCC-2998 colon; more than 100 µM in the test on K-562 leukemia; more than 100 µM in the test with OVCAR-8 ovarian; 42.2 µM with TK-10 renal. Also, the TGI with UACC-257 melanoma was 59.4 µM.

For the compound `CC(=O)OC1(C)C(=O)OC1(C)C(C)=O` (stereo not drawn), the TGI in the test with A498 renal, in the test on COLO 205 colon, in the test on HCC-2998 colon, in the test with HCT-116 colon, in the test with K-562 leukemia and in the test on OVCAR-8 ovarian was more than 100 µM throughout. The total growth inhibition concentration (TGI) in the test on TK-10 renal and with UACC-257 melanoma was more than 100 µM each time.

With `CC(C)(C)C(=O)ON1N=NC2C3CC(OCc4ccccc4)(OCc4ccccc4)C(O3)C21` (stereo not drawn), the TGI is more than 100 µM in the test with A498 renal; 38.4 µM in the test with COLO 205 colon; 31.2 µM in the test on HCC-2998 colon; 37 µM in the test on K-562 leukemia; 29.2 µM in the test with UACC-257 melanoma.

In the case of `O=C1CN(C(=O)c2ccccc2)Cc2[nH]c3ccccc3c21`, the TGI with COLO 205 colon, in the test with HCC-2998 colon, in the test with HCT-116 colon, in the test with K-562 leukemia, in the test with OVCAR-8 ovarian and with TK-10 renal was more than 100 µM in each case. Also, the TGI in the test on UACC-257 melanoma was more than 100 µM.

Take `Cc1cc(NS(=O)(=O)c2ccc(NC(=O)c3cccc4c(Nc5ccc(S(=O)(=O)N=C(N)N)cc5)c5ccccc5nc34)cc2)no1`: the concentration for total growth inhibition (TGI) with A498 renal, in the test with COLO 205 colon, in the test on HCC-2998 colon, in the test on HCT-116 colon, in the test with K-562 leukemia and in the test on OVCAR-8 ovarian was more than 100 µM in each case. The TGI with TK-10 renal and in the test with UACC-257 melanoma was more than 100 µM in each case.

In the case of `CN1CC(C(=O)C2C(=O)c3ccccc3C2=O)C(=O)C(=O)C(C(=O)C2C(=O)c3ccccc3C2=O)C1` (stereo not drawn), the TGI in the test on A498 renal, in the test on COLO 205 colon, in the test on HCC-2998 colon, in the test with HCT-116 colon, with K-562 leukemia and in the test on OVCAR-8 ovarian was more than 100 µM throughout. Besides, the TGI in the test with TK-10 renal and in the test on UACC-257 melanoma was more than 100 µM throughout.

As for `O=C(OCC1CO1)c1cccs1` (stereo not drawn), the TGI with COLO 205 colon, in the test with HCC-2998 colon, in the test with K-562 leukemia, in the test on OVCAR-8 ovarian, with TK-10 renal and with UACC-257 melanoma was more than 100 µM each time.

Consider `COc1cccc(Cc2c3cc(OC)ccc3cc[n+]2C)c1`, for which the concentration for total growth inhibition (TGI) with A498 renal is more than 100 µM; in the test on HCC-2998 colon it was more than 100 µM; in the test on K-562 leukemia it was more than 100 µM; in the test on OVCAR-8 ovarian, more than 100 µM; in the test with TK-10 renal, more than 100 µM; with UACC-257 melanoma, 51.6 µM.

Consider `CCOC(=O)C1SC(=Nc2ccc(Cl)c(Cl)c2)N=C1C` (stereo not drawn), for which the TGI was 84.3 µM in the test on A498 renal; 76.3 µM in the test with COLO 205 colon; more than 100 µM in the test on HCC-2998 colon; 32.5 µM in the test with K-562 leukemia; more than 100 µM in the test on OVCAR-8 ovarian; more than 100 µM in the test on TK-10 renal. In addition, the TGI with UACC-257 melanoma was more than 100 µM.

`CCOC(=O)C(=Cc1ccc(C(=O)OC)cc1)C(=O)OCC`: the TGI is 26 µM in the test on A498 renal; 3.59 µM with COLO 205 colon; 12.1 µM with HCC-2998 colon; 12.5 µM in the test with HCT-116 colon; more than 100 µM with K-562 leukemia; 10.3 µM with OVCAR-8 ovarian. The same compound gave a TGI in the test with TK-10 renal of 7.34 µM.

Turning to `CC(=O)CCCCO`, the TGI in the test on A498 renal, with COLO 205 colon, in the test on HCT-116 colon, in the test on K-562 leukemia, with OVCAR-8 ovarian and in the test with TK-10 renal was more than 100 µM throughout. The compound further showed a TGI in the test with UACC-257 melanoma of more than 100 µM.

On to `NC(=O)C(c1ccccc1)N1CCOCC1` (stereo not drawn), for which the TGI in the test on A498 renal, in the test on COLO 205 colon, in the test on HCT-116 colon, in the test with K-562 leukemia, with OVCAR-8 ovarian and in the test on TK-10 renal was more than 100 µM throughout. In the test on UACC-257 melanoma, this compound showed a TGI of more than 100 µM.

As for `O=C(CC(=O)N1N=C(N2c3ccccc3Sc3ccccc32)CC1c1ccccc1)Nc1ccc(Cl)cc1` (stereo not drawn), the concentration for total growth inhibition (TGI) in the test with A498 renal, in the test on COLO 205 colon, in the test on HCC-2998 colon, in the test on HCT-116 colon, with OVCAR-8 ovarian and in the test with TK-10 renal was more than 100 µM throughout. The same compound gave a TGI with UACC-257 melanoma of more than 100 µM.

With `Fc1ccc(C2SCc3nc4ccccc4n32)cc1` (stereo not drawn), the concentration for total growth inhibition (TGI) in the test with COLO 205 colon is more than 100 µM; in the test on HCT-116 colon, more than 100 µM; in the test with K-562 leukemia, more than 100 µM; with OVCAR-8 ovarian, more than 100 µM; in the test on TK-10 renal it was 72 µM.

Values taken from PubChem BioAssay (NCI).
